One series relates to Aedes aegypti. The experiment in a line: Aedes aegypti (Yellow fever mosquito) larvae test. Format: in vivo. The following applies: 48 h.
The subject of series [1] is Erysiphe graminis f.sp. tritici. Kind of series: Erysiphe graminis f.sp. tritici (wheat powdery mildew) leaf disk assay. The class given is in vivo. As to conditions: Blumeria graminis, foliar, 96 h, preventive, four days after inoculation, read-out: control of fungal infection, Erysiphe graminis fsp. tritici.
Another series concerns Tetranychus urticae. The following applies: foliar, 192 h, read-out: control of Tetranychus urticae.
The next series deals with Pyricularia oryzae. The experiment in a line: whole plant or invertebrate. The class given is in vivo. The following applies: foliar, 96 h.
Series [2] concerns Puccinia recondita f.sp. tritici. Kind of series: Puccinia recondita f.sp. tritici (wheat brown rust) leaf disk assay. Format: in vivo. The following applies: foliar, 216 h, preventive, nine days after inoculation, read-out: control of fungal infection, Puccinia recondita f.sp. tritici.
Another series relates to Plutella xylostella. The experiment in a line: Plutella xylostella (Diamond back moth) artificial diet test. As to conditions: 120 h, read-out: control of Plutella xylostella.
Another series deals with Plasmopara viticola. The experiment in a line: Plasmopara viticola (downy mildew of grapevine) leaf disk assay. Format: in vivo. As to conditions: foliar, 168 h, preventive, seven days after inoculation, read-out: control of fungal infection, Plasmopara viticola.
In another series the test system is Phytophthora infestans. Kind of series: whole plant or invertebrate. The following applies: foliar, 96 h, read-out: control of fungal infection, Phytophthora infestans. The class given is in vivo.
Where [3] appears, read: read-out: control of fungal infection, Pyricularia oryzae (at least 60% list).
[4] abbreviates: read-out: control of fungal infection, Pyricularia oryzae (at least 80% list).

The text below walks through data of patent US20100331348A1, “TROPANE DERIVATIVES USEFUL AS PESTICIDES” (SYNGENTA CROP PROTECTION, INC., priority 2007, published 2010).

Broadly, the melting point is the temperature of the solid-liquid transition.

Read-outs that look alike come from different tables or passages of the source.

The molecule `Fc1c(Cl)cccc1CON=C1CC2CCC(C1)N2c1ncnc2sccc12` [Example 5.217] showed a pest or weed control at 2 ppm in the series with Aedes aegypti not below 80%. Moreover, the pest or weed control at 200 ppm was not below 80% in series [1]; not below 80% with Tetranychus urticae; not below 60% with Pyricularia oryzae (setting [3]); not below 80% with Pyricularia oryzae (setting [4]); not below 80% in series [2]; not below 80% in the series with Plutella xylostella.

`OC1(CC#Cc2ccccc2)CC2CCC(C1)N2c1ncnc2sccc12` (stereo not shown) [Example 7.15] returned a melting point of 173 °C. In addition, in series [2], the pest or weed control at 200 ppm was not below 80%.

As to `CCC(=O)c1ccc(OC2C[C@H]3CC[C@@H](C2)N3c2ncnc3sccc23)cc1` (stereo partly shown) [Example 2.37], the pest or weed control at 200 ppm (in [1]; in the series with Tetranychus urticae) was not below 80% in each case.

In the case of `Fc1cc(F)c(CON=C2CC3CCC(C2)N3c2ncnc3sccc23)cc1F` [Example 5.226], the melting point turned out to be 106 °C. For the same molecule, the pest or weed control at 200 ppm in [1] was not below 80%. The pest or weed control at 200 ppm in series [2] was not below 80%.

Take `Cc1cc(N2[C@@H]3CC[C@H]2CC(Oc2cccc(C(F)(F)F)n2)C3)n2ncnc2n1` (stereo partly shown) [Example 2.101]: the melting point was found to be 212 °C. Further, the pest or weed control at 200 ppm in the series with Plasmopara viticola was not below 80%.

Consider `N#CCC1CC2CCC(C1)N2c1ncnc2sccc12` (stereo not shown) [Example 7.1], for which the pest or weed control at 200 ppm in the series on Tetranychus urticae is not below 80%.

For `N#Cc1ccc(OC2C[C@H]3CC[C@@H](C2)N3c2ncnc3sccc23)cc1F` (stereo partly shown) [Example 1.259], the pest or weed control at 2 ppm in the series with Aedes aegypti was not below 80%. Also, the pest or weed control at 200 ppm (in the series with Tetranychus urticae; in series [2]) was not below 80% each time.

In turn, `CCOC(=O)C=C1CC2CCC(C1)N2c1ncnc2sccc12` [Example 3.34] returned a melting point of 101 °C. For the same molecule, the pest or weed control at 200 ppm in the series with Pyricularia oryzae (setting [3]) was not below 60%. Also, in the series with Pyricularia oryzae (setting [4]), the pest or weed control at 200 ppm was not below 80%. In addition, the pest or weed control at 200 ppm in series [2] is not below 80%. In addition, the pest or weed control at 200 ppm in the series with Plasmopara viticola was not below 80%.

In the series on Aedes aegypti, `Cc1ccc(CON=C2CC3CCC(C2)N3c2ncnc3sccc23)cc1C` [Example 5.179] registered a pest or weed control at 2 ppm not below 80%. Further, the pest or weed control at 200 ppm is not below 80% in series [1]; not below 80% in the series with Tetranychus urticae; not below 60% with Pyricularia oryzae (setting [3]); not below 80% in series [2]; not below 80% in the series with Plutella xylostella.

As to `CCc1ncnc(N2C3CCC2CC(=CC#N)C3)c1Cl` [Example 3.1], the melting point was determined as 73 °C. Besides, the pest or weed control at 200 ppm in series [2] was not below 80%.

Turning to `Fc1ccc(CON=C2CC3CCC(C2)N3c2ncnc3sccc23)c(Cl)c1` [Example 5.192], in the series on Aedes aegypti, the pest or weed control at 2 ppm was not below 80%. In addition, the pest or weed control at 200 ppm in the series with Tetranychus urticae was not below 80%; with Pyricularia oryzae (setting [3]), not below 60%; in the series on Plutella xylostella it was not below 80%.

`c1ccc2cc(CON=C3CC4CCC(C3)N4c3ncnc4sccc34)ccc2c1` [Example 5.147]: the pest or weed control at 2 ppm with Aedes aegypti was not below 80%. For the same molecule, the pest or weed control at 200 ppm (in series [1]; in the series on Tetranychus urticae; in series [2]; in the series on Plutella xylostella; in the series on Phytophthora infestans) was not below 80% each time.

For `Cc1cc(C(F)(F)F)cc(ON=C2CC3CCC(C2)N3c2ncnc3sccc23)n1` [Example 5.196], the melting point is 167 °C. Besides, the pest or weed control at 200 ppm in series [1] is not below 80%. The pest or weed control at 200 ppm in series [2] was not below 80%.

In turn, `FC(F)(F)c1cnc(ON=C2CC3CCC(C2)N3c2ncnc3sccc23)c(Cl)c1` [Example 5.207] registered a melting point of 156 °C. Further, the pest or weed control at 200 ppm in [1] is not below 80%. The pest or weed control at 200 ppm in the series on Pyricularia oryzae (setting [3]) was not below 60%. In [2], the pest or weed control at 200 ppm was not below 80%.

As for `CCc1ncnc(N2C3CCC2CC(=NOCc2ccc(-c4ccccc4)cc2)C3)c1Cl` [Example 5.22], the pest or weed control at 200 ppm (in [1]; with Tetranychus urticae; in [2]) was not below 80% in each case.

Turning to `CCc1ncnc(N2C3CCC2CC(=NOCc2ccc(OC(F)(F)F)cc2)C3)c1Cl` [Example 5.66], the pest or weed control at 200 ppm (in series [1]; with Tetranychus urticae; in series [2]; in the series with Plutella xylostella) was not below 80% each time.

On to `CC(C)(C)c1ccc(CON=C2CC3CCC(C2)N3c2ncnc3sccc23)cc1` [Example 5.167], for which the pest or weed control at 200 ppm (in [1]; with Tetranychus urticae; in [2]) was not below 80% each time.

For `Cn1nc(C(F)(F)F)cc1C(=O)N1[C@@H]2CC[C@H]1CC(Oc1cc(C(F)(F)F)ccn1)C2` (stereo partly shown) [Example 2.217], the melting point was determined as 122 °C. Also, the pest or weed control at 200 ppm in series [1] is not below 80%.

For the molecule `Cc1nn(C)c2nccc(N3[C@@H]4CC[C@H]3CC(Oc3ccc(C(F)(F)F)cn3)C4)c12` (stereo partly shown) [Example 2.194], the pest or weed control at 200 ppm with Tetranychus urticae is not below 80%.

Regarding `N#Cc1c(Cl)nsc1N1[C@@H]2CC[C@H]1CC(Oc1cc(C(F)(F)F)ccn1)C2` (stereo partly shown) [Example 2.196], the melting point stood at 103 °C. Also, in series [1], the pest or weed control at 200 ppm is not below 80%.

With `FC(F)(F)c1ccc(-c2nc(CON=C3CC4CCC(C3)N4c3ncnc4sccc34)no2)cc1` [Example 5.260], the pest or weed control at 200 ppm (in [1]; in the series on Tetranychus urticae; in series [2]) was not below 80% in each case.

`O=C1c2ccccc2C(=O)N1OC1C[C@H]2CC[C@@H](C1)N2c1ncnc2sccc12` (stereo partly shown) [Example 2.64]: the melting point was found to be 190 °C. For the same molecule, the pest or weed control at 200 ppm with Pyricularia oryzae (setting [3]) was not below 60%. Also, in the series on Pyricularia oryzae (setting [4]), the pest or weed control at 200 ppm was not below 80%. Also, the pest or weed control at 200 ppm in series [2] is not below 80%.

`FC(F)(F)c1ccnc(OC2C[C@H]3CC[C@@H](C2)N3c2ncnc3sccc23)c1` (stereo partly shown) [Example 2.51] showed a melting point of 172 °C. In addition, the pest or weed control at 200 ppm with Pyricularia oryzae (setting [3]) is not below 60%.

As for `FC(F)(F)c1ccc(ON=C2CC3CCC(C2)N3c2ncnc3sccc23)nc1` [Example 5.170], the pest or weed control at 200 ppm in series [1] is not below 80%; in the series on Tetranychus urticae it was not below 80%; in the series with Pyricularia oryzae (setting [3]), not below 60%; in [2], not below 80%.

For `Cc1nsc(N2[C@@H]3CC[C@H]2CC(Oc2ccc(C(F)(F)F)cn2)C3)n1` (stereo partly shown) [Example 2.204], the melting point worked out at 169 °C. The pest or weed control at 200 ppm in series [2] is not below 80%.

With `Cc1noc2ncnc(N3[C@@H]4CC[C@H]3CC(Oc3cccc(C(F)(F)F)n3)C4)c12` (stereo partly shown) [Example 2.121], the melting point is 159 °C. Further, the pest or weed control at 200 ppm in [1] is not below 80%. Besides, the pest or weed control at 200 ppm in series [2] was not below 80%.

On to `Cc1nn(C)c2nccc(N3[C@@H]4CC[C@H]3CC(Oc3nc(C(F)(F)F)cs3)C4)c12` (stereo partly shown) [Example 2.107], for which the melting point was 184 °C. The pest or weed control at 200 ppm in series [1] was not below 80%.

Regarding `Cc1cc(N2[C@@H]3CC[C@H]2CC(Oc2ccc(C(F)(F)F)cn2)C3)n2ncnc2n1` (stereo partly shown) [Example 2.139], the melting point came to 240 °C. The pest or weed control at 200 ppm in [1] was not below 80%. Further, the pest or weed control at 200 ppm in the series on Pyricularia oryzae (setting [3]) was not below 60%.

`FC(F)(F)c1ccnc(OC2C[C@H]3CC[C@@H](C2)N3c2ccncn2)c1` (stereo partly shown) [Example 2.87] showed a melting point of 108 °C. In the series with Pyricularia oryzae (setting [3]), the pest or weed control at 200 ppm was not below 60%.

As for `Cc1nn(C)c2nccc(N3[C@@H]4CC[C@H]3CC(Oc3ncc(Cl)cc3F)C4)c12` (stereo partly shown) [Example 1.252], the melting point came out at 112 °C. The pest or weed control at 200 ppm in series [1] is not below 80%. The pest or weed control at 200 ppm in the series with Pyricularia oryzae (setting [3]) was not below 60%.

Consider `CCc1ncnc(N2C3CCC2CC(O)(CC#C[Si](C)(C)C)C3)c1Cl` (stereo not shown) [Example 7.34], for which the melting point worked out at 85 °C. Moreover, the pest or weed control at 200 ppm in the series with Pyricularia oryzae (setting [3]) is not below 60%.

`Cc1nn(C)c2nccc(N3C4CCC3CC(=NOc3ncc(C(F)(F)F)cc3Cl)C4)c12` [Example 5.261] showed a melting point of 153 °C. In series [1], the pest or weed control at 200 ppm was not below 80%.

`CCc1ncnc(N2C3CCC2CC(=NOCc2ccc(SC(F)(F)F)cc2)C3)c1Cl` [Example 5.99]: the pest or weed control at 200 ppm (in series [1]; in the series on Tetranychus urticae; in series [2]) was not below 80% in each case.

As for `CCc1ncnc(C(C)c2ncnc(N3C4CCC3CC(=NO)C4)c2Cl)c1Cl` (stereo not shown) [Example 5.4], the melting point was found to be 162 °C. The pest or weed control at 200 ppm in series [1] is not below 80%.

`FC(F)(F)c1cccc(OC2C[C@H]3CC[C@@H](C2)N3c2cc(Cl)ncn2)n1` (stereo partly shown) [Example 2.90]: the melting point worked out at 136 °C. Further, the pest or weed control at 200 ppm in series [1] is not below 80%.

For `CCc1ncnc(N2[C@@H]3CC[C@H]2CC(Oc2nc(Br)ccc2Cl)C3)c1Cl` (stereo partly shown) [Example 1.167], the pest or weed control at 200 ppm (in series [1]; in the series on Tetranychus urticae) was not below 80% in each case.

`CCc1ncnc(N2C3CCC2CC(=NOCc2ccc(C(F)(F)F)c(F)c2)C3)c1Cl` [Example 5.86]: the pest or weed control at 200 ppm (in the series with Tetranychus urticae; in the series with Pyricularia oryzae (setting [4]); in series [2]) was not below 80% in each case.
